# Values joined by “and” are separate entries in the source; they are usually repeats but may differ in a detail not shown here. Equal values may be shown once.
# Experiments:
# human TRPV1 [1] = target: T1, human TRPV1 (Homo sapiens, UniProt Q8NER1); test: Calcium 5 dye [Ca]i assay in HEK-293 Flp-In T-REx cells expressing TRPV1 (agonist response); format: cell-based; settings: for Change in Ca5 fluorescence, individual experiments (CRC raw data): TRPV1 cells
# T1 construct: Life Technologies (cells); host or cells: Flp-In T-REx HEK-293
# How it was run: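 Tetracycline-induced (1 µg ml^−1, 4 h) HEK-293 T-REx cells loaded with Calcium 5 dye plus 1.25 mM probenecid for 1 h; agonist added after 1 min baseline (0.1% DMSO final), fluorescence (485/525 nm) read every 2 s for 5 min at 37 °C. Response as % change from baseline, solvent-subtracted; EC50/Emax from three-parameter logistic fit, given as pEC50.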
# HEK-293 EV cells = test: Calcium 5 dye [Ca]i assay in HEK-293 empty vector (EV) cells; format: cell-based, human; settings: 10 µM; HEK-293 EV cells; percentage of predrug baseline
# How it was run: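 Tetracycline at 1 µg ml^−1 was added 4 h before testing; cells were loaded with Calcium 5 dye for 1 h and read at 37 °C, with drug added after 1 min baseline (final 0.1% DMSO). The response was the % change from the 60 s baseline after solvent subtraction, and EC50/Emax came from a three-parameter logistic fit, reported as pEC50.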
# human TRPV1 [2] = target: T1, human TRPV1; test: PMA (phorbol ester) potentiation of TRPV1 responses in HEK-293 TRPV1 cells; format: cell-based; settings: for [Ca]i response (change in fluorescence), individual replicates: sheet Figure 5(C)
# Method: (§1) Intracellular calcium [Ca]i levels were assessed using the calcium 5 kit from Molecular Devices (# R8186, Sunnyvale, CA, USA) on a FlexStation 3 Microplate Reader (Molecular Devices, Sunnyvale, CA, USA). […] Probenecid (cat # 50027; Biotium) which helps to prevent expulsion of calcium indicator from the cells was added to a final concentration of 1.25 mM. 90 µL of the dye were loaded into each well of the plate and incubated for 1 h before reading in the FlexStation 3 at 37 °C. Fluorescence was recorded every 2 s (λ excitation = 485 nm, λ emission = 525 nm) for 5 min. After 1 min of baseline recording, 20 µL of the drug, dissolved in HBSS with 1% dimethyl sulfoxide (DMSO) (cat # D2650; Sigma-Aldrich, Melbourne, Australia) was added (final DMSO concentration was 0.1% in well).
# We initially determined the effect of PMA, another phorbol ester that is a protein kinase C activator ([Jiang & Fleet, 2012]) on HEK-293 TRPV1 expressing cells.
# (A) Response of HEK-293 TRPV1 expressing cells for PMA at various concentration. […] Drugs were added for the duration of the bar; (D) The effects of PUFAs after potentiation of TRPV1 by PMA. […] Changes in [Ca]i are expressed as percentage of the pre-drug baseline, with the response to PMA alone at 5 min subtracted. The black circles represent the response of PUFAs without PMA pretreatment while the pink circles represent the response of PUFAs after PMA potentiation.
# human TRPV1 [3] = target: T1, human TRPV1; test: Pre-incubation with PUFAs or capsazepine, then capsaicin (10 nM) response in HEK-293 TRPV1 cells; format: cell-based
# Method: as §1, with “well). […]” for “well).”
# T1 sequence (Q8NER1 whole entry): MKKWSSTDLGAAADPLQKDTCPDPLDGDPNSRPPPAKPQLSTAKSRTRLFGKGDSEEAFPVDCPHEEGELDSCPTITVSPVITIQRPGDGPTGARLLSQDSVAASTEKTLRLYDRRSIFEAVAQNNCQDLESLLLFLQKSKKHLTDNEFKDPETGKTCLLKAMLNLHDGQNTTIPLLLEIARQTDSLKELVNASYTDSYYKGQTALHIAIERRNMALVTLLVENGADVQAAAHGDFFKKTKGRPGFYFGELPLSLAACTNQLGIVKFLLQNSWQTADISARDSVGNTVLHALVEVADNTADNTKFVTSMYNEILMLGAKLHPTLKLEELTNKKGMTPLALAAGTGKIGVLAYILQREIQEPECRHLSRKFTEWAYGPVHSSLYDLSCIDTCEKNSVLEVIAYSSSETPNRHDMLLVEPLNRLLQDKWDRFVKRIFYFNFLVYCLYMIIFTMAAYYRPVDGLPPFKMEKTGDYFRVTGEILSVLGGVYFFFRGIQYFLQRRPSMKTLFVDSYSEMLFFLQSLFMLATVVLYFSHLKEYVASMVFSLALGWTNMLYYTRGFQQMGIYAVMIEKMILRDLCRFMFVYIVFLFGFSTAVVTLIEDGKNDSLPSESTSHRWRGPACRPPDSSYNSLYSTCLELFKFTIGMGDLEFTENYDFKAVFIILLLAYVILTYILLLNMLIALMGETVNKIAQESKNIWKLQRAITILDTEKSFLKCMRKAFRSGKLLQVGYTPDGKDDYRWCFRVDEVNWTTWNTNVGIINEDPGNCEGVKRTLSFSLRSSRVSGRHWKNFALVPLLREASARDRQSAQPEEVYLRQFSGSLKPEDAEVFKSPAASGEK
structure (smiles),measurement,setting,value
COc1cc(CNC(=O)CCCC/C=C/C(C)C)ccc1O [Capsaicin],Elevation of [Ca]i in HEK-293 TRPV1 cells compared with HEK-293 EV cells,human TRPV1 [1]; 10 µM,significantly greater
same,"Change of Ca5 fluorescence, Mean ± SEM, TRPV1 (10 µM)","human TRPV1 [1]; 10 µM, HEK-293 TRPV1 cells, percentage of predrug baseline",350 ± 33 %
same,Emax at 30 µM,"human TRPV1 [1]; HEK293, read-out: Emax ± SEM % TRPV1 (30 µM)",340 ± 19%
same,"TRPV1 response, Mean± SEM (N)",human TRPV1 [1]; highest concentration of capsaicin (10 µM),337 ± 56 (21)
same,"Change in Ca5 fluorescence, individual experiments (CRC raw data)",human TRPV1 [1]; log concentration -5 (M),470.33 and 172.951 and 473.364 and 509.446 and 171.926 and 427.551 and 233.547 and 218.906 and 339.94 and 178.11 and 253.39 and 197.967 and 463.085 and 202.235 and 472.577 and 462.537 and 153.101 and 535.708 and 529.643 and 524.333
same,"Change in Ca5 fluorescence, individual experiments (CRC raw data)",human TRPV1 [1]; log concentration -6 (M),464.868 and 165.225 and 461.65 and 520.53 and 312.706 and 3.214 and 3.201 and 3.988 and 340.169 and 187.118 and 486.026 and 246.165 and 485.213
same,"Change in Ca5 fluorescence, individual experiments (CRC raw data)",human TRPV1 [1]; log concentration -7 (M),449.588 and 119.691 and 406.342 and 2.432 and 332.379 and 480.521 and 322.808 and 86.6522 and 310.081 and 147.599 and 431.922 and 467.245
same,"Change in Ca5 fluorescence, individual experiments (CRC raw data)",human TRPV1 [1]; log concentration -7.52288 (M),356.845 and 111.895 and 323.852 and 3.161 and 274.896 and 259.762 and 73.7365 and 34.2854 and 273.106 and 132.986 and 393.207 and 420.023 and 372.386
same,"Change in Ca5 fluorescence, individual experiments (CRC raw data)",human TRPV1 [1]; log concentration -8 (M),5.385 and 96.7773 and 164.958 and 3.572 and 5.951 and 47.2327 and 7.175 and 1.822 and 309.776 and 125.652 and 333.972 and 270.42 and 149.94
same,"Change in Ca5 fluorescence, individual experiments (CRC raw data)",human TRPV1 [1]; log concentration -8.52288 (M),11.2452 and 61.0751 and 5.8468 and 39.7141 and 6.931 and 3.397 and 5.378 and 0.9947 and 335.917 and 103.111 and 65.1245 and 4.361 and 1.4546
same,"Change in Ca5 fluorescence, individual experiments (CRC raw data)",human TRPV1 [1]; log concentration -9 (M),6.236 and 19.5627 and 8.465 and 57.6325 and 2.89 and 1.796 and 10.3317 and 2.025 and 308.34 and 50.3171 and 51.1654 and 4.4283 and 2.369 and 122.651 and 6.769 and 5.267
same,Change in Ca5 fluorescence,"human TRPV1 [1]; maximal effective concentration, HEK-293 TRPV1 cells, dye saturation control",435 ± 15%
same,"Change of Ca5 fluorescence, Mean ± SEM, EV (10 µM)",HEK-293 EV cells,12 ± 2%
same,"[Ca]i response (change in fluorescence), individual replicates","human TRPV1 [2]; Capsaicin alone, concentration -5 (log)",595.541 and 626.277 and 602.254 and 594.454 and 590.074 and 541.046 and 516.667
same,"[Ca]i response (change in fluorescence), individual replicates","human TRPV1 [2]; Capsaicin alone, concentration -6 (log)",552.521 and 565.654 and 354.62 and 545.98 and 564.249 and 584.634 and 580.153
same,"[Ca]i response (change in fluorescence), individual replicates","human TRPV1 [2]; Capsaicin alone, concentration -7.52288 (log)",532.091 and 453.931 and 457.847 and 272.568
same,"[Ca]i response (change in fluorescence), individual replicates","human TRPV1 [2]; Capsaicin alone, concentration -8 (log)",105.919 and 177.189 and 79.3195 and 30.3097 and 60.6584 and 319.686 and 144.106
same,"[Ca]i response (change in fluorescence), individual replicates","human TRPV1 [2]; Capsaicin alone, concentration -8.52288 (log)",2.139 and 1.734 and 6.239 and 49.459 and 10.1781 and -5.201 and 2.9246 and 2.502 and 16.6604 and 25.7998 and 147.975 and 180.247
same,"[Ca]i response (change in fluorescence), individual replicates","human TRPV1 [2]; Capsaicin alone, concentration -9 (log)",2.491 and -0.4612 and 4.215 and 6.618 and 6.288 and 4.839 and 3.5734 and 0.9298 and 2.514 and -2.854 and 3.184 and 5.152
same,"[Ca]i response (change in fluorescence), individual replicates","human TRPV1 [2]; Capsaicin alone, concentration -10 (log)",-1.109 and 5.021 and -0.4125 and -2.624 and 0.2107
same,"[Ca]i response (change in fluorescence), individual replicates","human TRPV1 [2]; Capsaicin post-PMA, concentration -5 (log)",496.984 and 417.588
same,"[Ca]i response (change in fluorescence), individual replicates","human TRPV1 [2]; Capsaicin post-PMA, concentration -6 (log)",544.156 and 380.208 and 494.359 and 527.721 and 402.607 and 284.086
same,"[Ca]i response (change in fluorescence), individual replicates","human TRPV1 [2]; Capsaicin post-PMA, concentration -7.52288 (log)",396.653 and 394.172 and 495.495 and 292.964
same,"[Ca]i response (change in fluorescence), individual replicates","human TRPV1 [2]; Capsaicin post-PMA, concentration -8 (log)",292.695 and 167.258 and 234.279 and 203.284 and 320.763 and 311.597 and 228.909
same,"[Ca]i response (change in fluorescence), individual replicates","human TRPV1 [2]; Capsaicin post-PMA, concentration -8.52288 (log)",137.626 and 123.803 and 108.674 and 62.3148 and 135.616 and 311.329 and 67.1431 and 138.197 and 73.5753 and 51.0772
same,"[Ca]i response (change in fluorescence), individual replicates","human TRPV1 [2]; Capsaicin post-PMA, concentration -9 (log)",41.3533 and 39.7921 and 40.9396 and 31.7003 and 53.9609 and 52.809 and 35.9713 and 49.984 and 39.816 and 29.7359 and 17.3567
same,"[Ca]i response (change in fluorescence), individual replicates","human TRPV1 [2]; Capsaicin post-PMA, concentration -10 (log)",44.473 and 19.9944 and 42.7227 and 36.7683 and 31.3318 and 10.3982
same,"HBSS post Capsaicin, individual experiments",human TRPV1 [2]; HBSS after capsaicin 10 nM,14.4552 and 24.0374 and 16.1823
same,TRPV1 response after exposure to PMA,"human TRPV1 [2]; PMA 100 nM, 5 min pretreatment",amplified
same,"Drugs post-PMA, individual experiments","human TRPV1 [2]; capsaicin 10 nM after PMA 100 nM for 5 min, response to PMA alone subtracted",292.695 and 167.258 and 234.279 and 203.284 and 320.763
same,"Capsaicin response without PMA, individual experiments",human TRPV1 [2]; capsaicin 10 nM alone,226.255 and 133.384 and 132.765
same,"Drugs alone, individual experiments",human TRPV1 [2]; capsaicin 10 nM without PMA pretreatment,79.3195 and 30.3097 and 60.6584
"Oc1cc2c(cc1O)CN(C(=S)NCCc1ccc(Cl)cc1)CCC2 [capsazepine, reference compound]",Effect of pre-treatment on the capsaicin response,"human TRPV1 [3]; 10 µM, 5 min exposure, then capsaicin 10 nM",prevented
same,"Post-capsaicin: response to subsequent capsaicin addition, individual experiments","human TRPV1 [3]; capsaicin 10 nM after 5 min drug 10 µM, TRPV1 cells, listed as CAPZ",10.3375 and -4.09 and 24.8571 and 12.9593 and -2.666 and 6.069
same,"Pre-capsaicin: response to first drug, individual experiments","human TRPV1 [3]; drug 10 µM for 5 min, TRPV1 cells, listed as CAPZ",25.3514 and 3.867 and 12.8382 and 10.4656 and 4.742 and 37.2822
